From PMC8607231, “Generation of KS-133 as a Novel Bicyclic Peptide with a Potent and Selective VIPR2 Antagonist Activity that Counteracts Cognitive Decline in a Mouse Model of Psychiatric Disorders” (Frontiers in Pharmacology, 2021)
Where a SMILES comes first, the peptide text is derived from it. Bridges are numbered along the chain shown (N, C = ends).

How the values were obtained:
human VIPR1 = biological target: T1, human VIPR1 (Homo sapiens, UniProt P32241); assay: Calcium influx assay, antagonist activity against VIP-VIPR1 signaling; format: cell-based; settings: ligand VIP (25 nM) at EC80; CHO-K1 cells; n = 4 wells, ± S.E.M; read-out: Ca influx assay [IC50 (nM)] VIPR1
T1 construct: host or cells: CHO-K1
T1 sequence (P32241 31-457): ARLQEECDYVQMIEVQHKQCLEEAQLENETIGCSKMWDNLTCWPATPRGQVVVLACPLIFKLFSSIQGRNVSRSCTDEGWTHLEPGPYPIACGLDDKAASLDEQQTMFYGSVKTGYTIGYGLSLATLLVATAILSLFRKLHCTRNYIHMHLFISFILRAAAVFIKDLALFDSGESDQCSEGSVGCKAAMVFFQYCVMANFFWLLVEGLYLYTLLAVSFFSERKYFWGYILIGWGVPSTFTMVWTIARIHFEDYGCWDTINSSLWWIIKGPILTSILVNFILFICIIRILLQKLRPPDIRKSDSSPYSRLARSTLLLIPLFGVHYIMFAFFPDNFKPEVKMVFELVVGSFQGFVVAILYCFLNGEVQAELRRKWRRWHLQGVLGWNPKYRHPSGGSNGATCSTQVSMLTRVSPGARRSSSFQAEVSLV
Procedure: Evaluation of antagonist activities of peptides against VIP-VIPR1, VIP-VIPR2, and PACAP-PAC1 signaling pathways and agonistic activity of KS-133 at VIPR2 was carried out by Eurofins DiscoverX (Fremont, CA, United States). Intracellular calcium mobilization was monitored using a calcium-sensitive dye loaded in CHO-K1 cells expressing human VIPR1 (ITEM 86-0030P-2243AN), VIPR2 (ITEM 86-0030P-2244AN), and PAC1 (ITEM 86-0030P-2066AN). The cells were preincubated with antagonistic peptides for 30 min at room temperature in the dark. After addition of the ligand at EC80, calcium mobilization was immediately monitored by FLIPR Tetra for 2 min. Cyclic AMP production in CHO-K1 cells expressing human VIPR2 was evaluated using HitHunter® cAMP assays (antagonist mode: ITEM 86-0007P-2362AN; agonist mode: ITEM 86-0007P-2362AG). The cells were preincubated with antagonistic peptides for 30 min at room temperature. After addition of the ligand at EC80, cells were further incubated for 30 min at room temperature. Cells were lysed and the cAMP content of the cell lysate was determined by the β-galactosidase-based enzyme fragment complementation assay ([Eglen, 2002]). IC50 values were estimated by the following equation: IC50 = 10^[Log(A/B) × (50–D)/(C–D) + Log(B)], where A is the concentration at >50% inhibition, B is the concentration at <50% inhibition, C is the inhibition rate at concertation A, and D is the inhibition rate at concertation B.
First, the antagonistic activities of parental VIpep-3, KS-132, KS-133 (monocyclic) (no bridging between Lys^7 and Asp^11), and KS-133 against human VIPR1, VIPR2, and PAC1 were evaluated by a calcium influx assay. After antagonistic peptide treatment for 30 min, ligand at a concentration of EC80 was added to the cells and then calcium signaling was measured.
FIGURE 3 Antagonistic/agonistic activities of peptides in the calcium influx and cAMP assays. For evaluation of the antagonistic activity, the cells were preincubated with antagonistic peptides for 30 min. In the calcium influx assay, after addition of ligand at EC80, calcium mobilization was monitored immediately (see details in the Methods section) (n = 4 wells for each treatment). In the cAMP assay, after a 30 min incubation with the ligand at EC80, cAMP production in cells was measured (see details in the Methods section) (n = 4 wells for each treatment).

[1] = Plasma and brain levels after intravenous administration; format: in vivo; settings: mouse
Source text: Generally, drug discovery to target molecules in the CNS is harder than in peripheral tissues. Molecule exchange between the periphery and CNS is strictly restricted by the blood−brain barrier (BBB), especially molecules with a molecular weight (MW) of >400 g/mol. In addition to the MW limit, CNS drugs need to have high lipophilicity to cross the BBB ([McMartin et al., 1987]; [Dong, 2018]), but high lipophilic small molecules likely have undesirable side effects by potential off-target binding. Conversely, the MW of KS-133 was 1558 g/mol, which would avoid off-target side effects by VIPR2-selective binding but would make it difficult to cross the BBB. […] However, it was unclear whether the alterations in CREB phosphorylation were due to directly effects of s.c. injection of Ro 25-1553 and KS-133 on VIPR2 in the CNS. […] Intranasal administration is an attractive route for drug delivery to the brain because it allows direct transport of drugs from the nasal cavity to the brain parenchyma by bypassing systemic circulation ([Thorne et al., 2004]; [Lochhead and Thorne, 2012]; [Iwasaki et al., 2019]). It has been reported that about 1% of an administered molecule enters the CNS without crossing the BBB by administration to the nasal cavity, even those with a MW of 1000 g/mol ([McMartin et al., 1987]; [Dong, 2018]). There are some reports that the BBB becomes leaky in patients with psychiatric disorders such as schizophrenia and ASD ([Patel and Frey, 2015]; [Najjar et al., 2017]; [Kealy et al., 2020]). […] In the future, to clarify the mechanism and routes of how administered KS-133 targets the CNS, detailed pharmacokinetic studies of KS-133 in healthy mice and disease model mice using s.c., i.n., and intravenous administrations will be needed.

Which IC50 (human VIPR1) does the source give for `CC[C@H](C)[C@H](NC(=O)[C@H](CC(C)C)NC(=O)[C@@H]1CC(=O)NCCCC[C@@H]2NC(=O)[C@@H]3CCCN3C(=O)[C@H](CC(C)C)NC(=O)[C@H](Cc3ccc(O)cc3)NC(=O)[C@@H]3CCCN3C(=O)[C@@H]3CCCN3C(=O)[C@@H](NC(C)=O)CSSC[C@H](NC(=O)[C@H](CC(C)C)NC(=O)[C@H](Cc3ccc(O)cc3)NC2=O)C(=O)N1)C(N)=O` [KS-133, Ac-c[Cys-Pro-Pro-Tyr-Leu-Pro-c(Lys-Tyr-Leu-Cys]-Asp)-Leu-Ile-NH2] (Ac-CPPYLPKYLCDLI-NH2; disulfide 1-10; lactam 7-11) here?
The IC50 was greater than 5000 nM.

And the tissue level at time molar at 80 min ([1]; brain, adult male ICR mice, 80 min after intravenous KS-133 1 nmol/g, n = 3, mean ± S.E.M., unpublished data)?
The tissue level at time molar at 80 min was 0.035 ± 0.005 nmol/g.

What about the Plasma elimination half-life ([1]; in vivo) of the same compound?
The Plasma elimination half-life was “less than an hour”.

And the level at time molar at 80 min ([1]; plasma, adult male ICR mice, 80 min after intravenous KS-133 1 nmol/g, n = 3, mean ± S.E.M., unpublished data)?
The level at time molar at 80 min was 2780 ± 80 nM.
